Source: the supplement of paper PMC10307832

Experiments:
Assay in all cases: relative viability (nuclei count vs DMSO), 5 days (fraction); higher = more cells survive
PC-3 [JPC-3] = tested on: PC-3 [JPC-3]
Procedure, shortened: (§1)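 Each reported value is a median over duplicate plates. It expresses relative viability: treated-well nuclei count divided by vehicle-well nuclei count. Lung cancer cell lines in 1536-well plates were dosed by pin tool a day after seeding, alone with one drug or with a fixed anchor-drug dose plus five library-drug doses (not always all listed) in √10 steps, and nuclei were counted after 5 days.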

EMC-BAC-2 = tested on: EMC-BAC-2
Procedure, shortened: as §1

NCI-H1563 = tested on: NCI-H1563
Procedure, shortened: as §1

ChaGo-K-1 = tested on: ChaGo-K-1
Procedure, shortened: as §1

H3255 = tested on: H3255
Procedure, shortened: as §1

LOU-NH91 = tested on: LOU-NH91
Procedure, shortened: as §1

NCI-H520 = tested on: NCI-H520
Procedure, shortened: as §1

A-427 = tested on: A-427
Procedure, shortened: as §1

COR-L 105 = tested on: COR-L 105
Procedure, shortened: as §1

NCI-H1734 = tested on: NCI-H1734
Procedure, shortened: as §1

NCI-H2170 = tested on: NCI-H2170
Procedure, shortened: as §1

With O=c1cc(-c2cccc3c2Sc2ccccc2S3)oc(N2CCOCC2)c1 + CCNC(=O)c1noc(-c2cc(C(C)C)c(O)cc2O)c1-c1ccc(CN2CCOCC2)cc1 [Luminespib] (partner 0.01 µM) the relative viability (PC-3 [JPC-3]; first compound 0.8 µM) was 0.862, the relative viability (PC-3 [JPC-3]; first compound 2.53 µM) was 0.687 and the relative viability (PC-3 [JPC-3]; first compound 8 µM) was 0.493. It also gave a relative viability (EMC-BAC-2; first compound 0.08 µM) of 1.16, a relative viability (EMC-BAC-2; first compound 0.253 µM) of 1.31 and a relative viability (EMC-BAC-2; first compound 0.8 µM) of 1.13. It also gave a relative viability (EMC-BAC-2; first compound 2.53 µM) of 1.18, a relative viability (EMC-BAC-2; first compound 8 µM) of 1.27 and a relative viability (NCI-H1563; first compound 0.08 µM) of 0.708. The relative viability (NCI-H1563; first compound 0.253 µM) was 0.567, the relative viability (NCI-H1563; first compound 0.8 µM) was 0.491 and the relative viability (NCI-H1563; first compound 2.53 µM) was 0.491. For the same compound, the relative viability (NCI-H1563; first compound 8 µM) was 0.497, the relative viability (ChaGo-K-1; first compound 0.08 µM) was 0.533 and the relative viability (ChaGo-K-1; first compound 0.253 µM) was 0.763. The relative viability (ChaGo-K-1; first compound 0.8 µM) was 0.658, the relative viability (ChaGo-K-1; first compound 2.53 µM) was 0.67 and the relative viability (ChaGo-K-1; first compound 8 µM) was 0.548. For the same compound, the relative viability (H3255; first compound 0.08 µM) was 0.758, the relative viability (H3255; first compound 0.253 µM) was 0.943 and the relative viability (H3255; first compound 0.8 µM) was 0.84. For the same compound, the relative viability (H3255; first compound 2.53 µM) was 0.884, the relative viability (H3255; first compound 8 µM) was 0.955 and the relative viability (LOU-NH91; first compound 0.08 µM) was 0.327. For the same compound, the relative viability (LOU-NH91; first compound 0.253 µM) was 0.43, the relative viability (LOU-NH91; first compound 0.8 µM) was 0.339 and the relative viability (LOU-NH91; first compound 2.53 µM) was 0.354. It also gave a relative viability (LOU-NH91; first compound 8 µM) of 0.357, a relative viability (NCI-H520; first compound 0.08 µM) of 0.223 and a relative viability (NCI-H520; first compound 0.253 µM) of 0.231. It also gave a relative viability (NCI-H520; first compound 0.8 µM) of 0.215, a relative viability (NCI-H520; first compound 2.53 µM) of 0.205 and a relative viability (NCI-H520; first compound 8 µM) of 0.231. The relative viability (A-427; first compound 0.08 µM) was 0.92, the relative viability (A-427; first compound 0.253 µM) was 1.18 and the relative viability (A-427; first compound 0.8 µM) was 1.01. It also gave a relative viability (A-427; first compound 2.53 µM) of 0.842, a relative viability (A-427; first compound 8 µM) of 1.09 and a relative viability (COR-L 105; first compound 0.08 µM) of 0.701. The relative viability (COR-L 105; first compound 0.253 µM) was 0.762, the relative viability (COR-L 105; first compound 0.8 µM) was 0.705 and the relative viability (COR-L 105; first compound 2.53 µM) was 0.671. The relative viability (COR-L 105; first compound 8 µM) was 1.02, the relative viability (NCI-H1734; first compound 0.08 µM) was 0.195 and the relative viability (NCI-H1734; first compound 0.253 µM) was 0.175. It also gave a relative viability (NCI-H1734; first compound 0.8 µM) of 0.228, a relative viability (NCI-H1734; first compound 8 µM) of 0.2 and a relative viability (NCI-H2170; first compound 0.08 µM) of 0.839. It also gave a relative viability (NCI-H2170; first compound 0.253 µM) of 0.931, a relative viability (NCI-H2170; first compound 0.8 µM) of 0.903 and a relative viability (NCI-H2170; first compound 2.53 µM) of 0.63. It also gave a relative viability (NCI-H2170; first compound 8 µM) of 0.533.
